# Test results from ChEMBL document CHEMBL1201862, “PubChem BioAssay data set” (2004).
#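 Interpolation was linear, between the two tested concentrations surrounding the appropriate level; five concentrations were tested over 48 hours in 96-well plates. GI50 marks 50% less growth.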 Active and inactive are the calls of the source. No stated cut-off is given here; in the data, active = GI50 up to about 1.1 µM and inactive = higher.
# Key:
# Experiment in all cases: NCI-60 cell line screen, 48 h
# 786-0 = tested on: 786-0
# A498 = tested on: A498
# ACHN = tested on: ACHN
# CAKI-1 = tested on: CAKI-1
# COLO 205 = tested on: COLO 205
# EKVX = tested on: EKVX
# HCC 2998 = tested on: HCC 2998
# HOP-62 = tested on: HOP-62
# Hs-578T = tested on: Hs-578T
# NCI-H522 = tested on: NCI-H522
# PC-3 = tested on: PC-3
# RXF 393 = tested on: RXF 393
# SF-295 = tested on: SF-295
# SK-MEL-5 = tested on: SK-MEL-5
# SNB-19 = tested on: SNB-19
# UACC-62 = tested on: UACC-62
# UO-31 = tested on: UO-31
# OVCAR-4 = tested on: OVCAR-4
SMILES,GI50 (786-0),GI50 (A498),GI50 (ACHN),GI50 (CAKI-1),GI50 (COLO 205),GI50 (EKVX),GI50 (HCC 2998),GI50 (HOP-62),GI50 (Hs-578T),GI50 (NCI-H522),GI50 (PC-3),GI50 (RXF 393),GI50 (SF-295),GI50 (SK-MEL-5),GI50 (SNB-19),GI50 (UACC-62),GI50 (UO-31),GI50 (OVCAR-4)
Nc1nc(-c2ccccc2)nc2oc(-c3cccs3)nc12,> 100 µM (inactive),> 100 µM (inactive),> 100 µM (inactive),> 10 µM (inactive),> 100 µM (inactive),> 100 µM (inactive),> 100 µM (inactive),> 100 µM (inactive),> 100 µM (inactive),> 100 µM (inactive),> 100 µM (inactive),> 100 µM (inactive),> 100 µM (inactive),> 100 µM (inactive),> 100 µM (inactive),> 100 µM (inactive),> 100 µM (inactive),
CC12CC(OC(=O)[C@]1(C)O)[C@@H]([C@]1(O)CC[C@H]3[C@@H]4C[C@H]5O[C@]56[C@@H](O)C=CC(=O)[C@]6(C)[C@H]4CC[C@@]31C)C2 (stereo partly specified),3.04 µM (inactive),13.8 µM (inactive),10.9 µM (inactive),9.59 µM (inactive),3.39 µM (inactive),2.84 µM (inactive),16.2 µM (inactive),28.9 µM (inactive),6.71 µM (inactive),1.16 µM (inactive),12.1 µM (inactive),3.01 µM (inactive),33.7 µM (inactive),0.785 µM (active),40.1 µM (inactive),14.6 µM (inactive),4.32 µM (inactive),11.2 µM (inactive)
CC1CC[C@@]2(OC1)OC1C[C@H]3[C@@H]4CC=C5CC(OC6OC(CO)C(OC7OC(CO)C(O)C(OC8OCC(O)C(O)C8O)C7OC7OC(CO)C(OC8OC(C)C(OC9OC(C)C(O)C(O)C9O)C(O)C8O)C(O)C7O)C(O)C6O)CCC5(C)[C@H]4CCC3(C)C1[C@@H]2C (stereo partly specified),2.37 µM (inactive),2.02 µM (inactive),2.5 µM (inactive),7.55 µM (inactive),8.22 µM (inactive),8.28 µM (inactive),7.08 µM (inactive),7.13 µM (inactive),9.29 µM (inactive),8.87 µM (inactive),5.32 µM (inactive),6.34 µM (inactive),6.71 µM (inactive),8.69 µM (inactive),5.61 µM (inactive),9.71 µM (inactive),,4.21 µM (inactive)
Nc1nc(-c2cccc([N+](=O)[O-])c2)cc(-c2cc(-c3cccc([N+](=O)[O-])c3)nc(N)n2)n1,> 100 µM (inactive),> 100 µM (inactive),> 100 µM (inactive),> 100 µM (inactive),> 100 µM (inactive),> 100 µM (inactive),> 100 µM (inactive),> 100 µM (inactive),> 100 µM (inactive),> 100 µM (inactive),> 100 µM (inactive),> 100 µM (inactive),> 100 µM (inactive),> 100 µM (inactive),> 100 µM (inactive),> 100 µM (inactive),> 100 µM (inactive),> 100 µM (inactive)
COc1ccc(-n2c(N)c(C#N)c(C#N)c2-c2ccccc2)cc1,45.3 µM (inactive),> 100 µM (inactive),> 100 µM (inactive),> 100 µM (inactive),> 100 µM (inactive),> 100 µM (inactive),> 100 µM (inactive),87.7 µM (inactive),6.58 µM (inactive),59.4 µM (inactive),19.8 µM (inactive),23.8 µM (inactive),31.8 µM (inactive),51.6 µM (inactive),29.6 µM (inactive),10.7 µM (inactive),> 100 µM (inactive),15.1 µM (inactive)
CCN(CC)C1Oc2cc3c(cc2C(c2cc(OC)c(OC)c(OC)c2)C1C)OCO3 (stereo unspecified),1.33 µM (inactive),1.59 µM (inactive),2.14 µM (inactive),1.85 µM (inactive),0.875 µM (active),10.4 µM (inactive),0.809 µM (active),0.471 µM (active),0.759 µM (active),0.344 µM (active),0.979 µM (active),0.839 µM (active),0.441 µM (active),0.408 µM (active),1.29 µM (inactive),1.06 µM (active),2.56 µM (inactive),16.1 µM (inactive)
